Assay results taken from ChEMBL document CHEMBL4229326, “Modulators of 14-3-3 Protein-Protein Interactions” (J Med Chem, 2018).

What was measured:
14-3-3 protein sigma = target: T1, 14-3-3 protein sigma (Homo sapiens, UniProt P31947); experiment: Inhibition of TMR-GG-RLSHpSSLPG-NH2 binding to recombinant human GST-tagged 14-3-3-sigma preincubated for 30 mins followed by TMR-GG-RLSHpSSLPG-NH2 addition and measured after 60 mins by fluorescence polarization assay
T1 sequence (P31947 whole entry): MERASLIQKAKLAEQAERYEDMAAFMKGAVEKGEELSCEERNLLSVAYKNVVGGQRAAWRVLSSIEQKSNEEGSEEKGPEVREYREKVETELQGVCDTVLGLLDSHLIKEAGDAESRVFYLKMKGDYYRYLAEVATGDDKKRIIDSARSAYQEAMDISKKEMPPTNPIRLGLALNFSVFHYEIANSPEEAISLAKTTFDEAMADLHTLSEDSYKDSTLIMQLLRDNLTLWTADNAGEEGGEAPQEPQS

DG-75 = experiment: Growth inhibition of human DG75 cells after 48 hrs by trypan blue exclusion method; format: functional, cell-based; details: DG-75, 48 h
[1] = target: T2, 14-3-3 protein zeta/delta (Homo sapiens, UniProt P63104); experiment: Binding affinity to human full length 14-3-3zeta by fluorescence polarization assay
T2 sequence (P63104 whole entry): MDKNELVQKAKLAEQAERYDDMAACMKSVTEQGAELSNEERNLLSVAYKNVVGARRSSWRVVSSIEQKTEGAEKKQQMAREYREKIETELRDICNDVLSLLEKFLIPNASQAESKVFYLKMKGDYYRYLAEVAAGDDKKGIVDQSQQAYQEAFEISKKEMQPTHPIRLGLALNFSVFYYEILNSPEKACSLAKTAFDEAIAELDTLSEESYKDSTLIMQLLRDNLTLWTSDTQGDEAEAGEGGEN

[2] = target: Potassium channel subfamily K member 9 (Homo sapiens) (UniProt Q9NPC2); experiment: Stabilization of human HA-tagged TASK-3 interaction with 14-3-3 in Xenopus laevis oocytes assessed as increase of TASK-3 expression in plasma membrane at 10 uM by antibody-based luminometric assay relative to control; format: cell-based
14-3-3 protein gamma = target: T3, 14-3-3 protein gamma (Homo sapiens, UniProt P61981); experiment: Binding affinity to GST-tagged 14-3-3-gamma (unknown origin) expressed in Escherichia coli BL21(DE3) assessed as inhibition of interaction with PRAS40 in African green monkey COS7 cells preincubated with protein followed by cell addition by ELISA
T3 sequence (P61981 whole entry): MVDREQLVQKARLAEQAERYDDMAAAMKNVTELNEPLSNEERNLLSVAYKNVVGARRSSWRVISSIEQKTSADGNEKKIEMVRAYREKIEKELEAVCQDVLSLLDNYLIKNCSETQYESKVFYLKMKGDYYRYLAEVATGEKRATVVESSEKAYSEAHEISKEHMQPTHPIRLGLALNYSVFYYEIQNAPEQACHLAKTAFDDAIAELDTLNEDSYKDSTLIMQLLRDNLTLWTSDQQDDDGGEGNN

[3] = target: T2, 14-3-3 protein zeta/delta; experiment: Binding affinity to recombinant human His-tagged 14-3-3zeta expressed in Escherichia coli K12 by ITC method

Potassium channel subfamily K member 9 (Homo sapiens), sequence (Q9NPC2 whole entry): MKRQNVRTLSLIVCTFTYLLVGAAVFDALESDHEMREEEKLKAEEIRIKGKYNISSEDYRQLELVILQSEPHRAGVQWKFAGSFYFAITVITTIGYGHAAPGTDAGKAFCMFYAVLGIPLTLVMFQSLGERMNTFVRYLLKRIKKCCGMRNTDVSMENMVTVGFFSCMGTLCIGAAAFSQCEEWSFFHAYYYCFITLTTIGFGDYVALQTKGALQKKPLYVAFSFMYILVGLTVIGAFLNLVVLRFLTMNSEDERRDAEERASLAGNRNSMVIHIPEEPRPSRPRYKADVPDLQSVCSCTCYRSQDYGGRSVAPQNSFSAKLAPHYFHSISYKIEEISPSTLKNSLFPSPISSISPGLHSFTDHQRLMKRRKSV

| IC50 (14-3-3 protein sigma) | Compound | further results |
| --- | --- | --- |
| 2.6 to 3.6 µM | O=C(CNC(=O)c1ccc(CCl)cc1)N[C@@H](COP(=O)(O)O)C(=O)NCc1ccc2c(c1)OCO2 |  |
| 2.6 to 3.6 µM | O=C(CNC(=O)c1ccc(CCl)cc1)N[C@@H](COP(=O)(O)O)C(=O)NCCc1ccc(O)cc1 |  |
|  | CN(CCCCCl)P(=O)(OCc1ccc([N+](=O)[O-])o1)C(F)(F)C[C@H](NC(=O)CNC(=O)c1ccc(N)cc1)C(=O)NCCc1ccc(O)cc1 (stereo not given in full) | IC50 (DG-75): 5 µM |
|  | CC(C)C[C@H](NC(=O)[C@H](CC(=O)O)NC(=O)[C@]1(C)CCCCCCCCCCCC[C@](C)(NC(=O)CNC(=O)[C@@H](N)CCC(N)=O)C(=O)N[C@@H](CC(C)C)C(=O)N[C@@H](CC(=O)O)C(=O)N[C@@H](C)C(=O)N1)C(=O)N[C@@H](C)C(=O)N[C@@H](CO)C(=O)O | Kd [1]: 0.041 µM |
| 2.6 to 3.6 µM | CC(C)=CC(=O)N[C@@H](COP(=O)(O)O)C(=O)NCCc1ccc(O)cc1 |  |
|  | COC[C@H]1CC[C@@H]2/C1=C\[C@]1(C)C(=C(C(C)C)[C@@H]3CCO[C@@H]31)[C@@H](O[C@H]1C[C@@H]3COC(C)(C)O[C@H]3[C@H](O)[C@H]1O)[C@H](O)[C@@H]2C | Activity [2]: 45% |
| 2.6 to 3.6 µM | CC(C)=CC(=O)N[C@@H](COP(=O)(O)O)C(=O)NCc1ccc2c(c1)OCO2 |  |
| 2.6 to 3.6 µM | [N-]=[N+]=Nc1ccc(C(=O)NCC(=O)N[C@@H](COP(=O)(O)O)C(=O)NCCc2ccc(O)cc2)cc1 |  |
|  | Cc1nc(/N=N/c2ccc(C(=O)O)cc2)c(COP(=O)(O)O)c(C=O)c1O | IC50 (14-3-3 protein gamma): 16.4 µM |
|  | COC[C@H]1CC[C@@H]2/C1=C\[C@]1(C)C(=C([C@H](C)COC(C)=O)CC1OCc1ccccc1/C=N/OC[C@@H](NC(=O)[C@H](CC(=O)O)NC(=O)[C@H](Cc1ccc(O)cc1)NC(=O)[C@H](CO)NC(=O)[C@H](CCC(N)=O)NC(=O)CNS(=O)(=O)c1cccc3c(N(C)C)cccc13)C(C)C)[C@@H](O)[C@H](O)[C@@H]2C (stereo not given in full) | Kd [3]: 0.37 µM |
